Structures are written as SMILES. ≈ marks a conversion by molar mass, not a printed value.

In general, EC50 refers to the midpoint of the concentration-response curve. Low readings indicate a more potent agent, high ones a less potent agent. As a reminder, the solubility is how much of the substance goes into solution per volume. Lower therefore signals little dissolved substance.

One series deals with HIV-1 IIIB strain. The series can be described thus: MT-4 HIV Wild Type Virus Infection Assay (IIIB Virus). The series is classed as cell-based. The settings on record: Human immunodeficiency virus 1, MT4, 120 h; MT-4 cells acutely infected with HIV-1 IIIB, 5 day incubation, Cell-titer glo. As to the method: MT-4 HIV Wild Type Virus Infection Assay (IIIB Virus)
Test compounds and controls were serially diluted and spotted in replicate into 384 well black assay plates via acoustic transfer (Echo). MT-4 cells were grown in batch, centrifuged and resuspended into fresh CCM media (RPMI w/10% FBS, 1% PS) at 2×10^6 cells/ml. MT-4 cells were acutely infected with HIV-1 IIIB strain. The size of each infection mix was scaled by the number of sample plates to be tested. Each infection mix was transferred into 5 mL closed tubes and nutated rapidly on a shaker at 37° C. incubator for 1 hour. The infection mixes were then diluted 25× in fresh cell culture media and then added to assay plates at 40 μL per well using a ViaFlo 384 pipettor. After 5 day incubation at 37° C. in a C02 incubator, assay plates were processed with Cell-titer glo reagent using a ViaFlo 384 with an addition/mixing program. Plates were read immediately on Envision reader. Assay signals were plotted and dose response curves generated to determine individual compound EC50s.

Series [1] in a line: Intestinal S9 Assay (dog). The series is classed as in vitro ADME. The settings on record: pooled intestinal S9 fraction, 1.0 mg/mL S9 protein, 2 μM substrate, TRIS pH 7.4, read-out: Dog GI S9 T½. As to the method:
(§1) Reagents. Stock solutions of test compounds in dimethyl sulfoxide (DMSO) having a final concentration of 10 mM were prepared and used in all experiments. Sekisui XenoTech (Kansas City, KS) provided pooled intestinal S9 fractions. All other chemicals were purchased from Sigma-Aldrich (St. Louis, MO) or VWR (West Chester, PA).
(§2) Intestinal S9 Assay: For each test compound, an aliquot of the test compound was added to S9 stock diluted with TRIS buffer (100 mM TRIS, 1 mM ZnCl2, 1 mM MgCl2), pH 7.4, to obtain an incubation protein concentration of 1.0 mg/mL. The incubation was initiated by the addition of the substrate to the S9 reaction mixture to a final concentration of 2 μM. […] After quenching, the plates were centrifuged at 3000×g for 30 minutes. 150 μL aliquots of each supernatant were transferred to new plates and 150 μL water was added. Aliquots (10 μL) of the prepared samples were analyzed on a Thermo Q-Exactive mass spectrometer as described below.
(§3) Liquid Chromatography-Mass Spectrometry: Quantification of test compounds and control substrate was performed by analyte/internal standard peak area ratio (PAR) values measured on a Thermo Q-Exactive mass spectrometer coupled to a Dionex UltiMate 3000 HPLC with a Leap Technologies HTC PAL autosampler. The column used for analysis was a Thermo Scientific Hypersil GOLD (1.9 μm particle size, 50×2.1 mm). […]

A short description of series [2]: Intestinal S9 Assay (human). In kind it is in vitro ADME. The settings on record: pooled intestinal S9 fraction, 1.0 mg/mL S9 protein, 2 μM substrate, TRIS pH 7.4, read-out: Human GI S9 T½. The protocol:
as §1, §2, §3

The target of series [3] is T1, bovine intestinal alkaline phosphatase (Bos taurus, UniProt P19111).
T1 construct: purchased Millipore Sigma (St. Louis, MO) or Thermo Fisher Scientific (Waltham, MA)
T1 sequence (P19111 20-506 limits assumed): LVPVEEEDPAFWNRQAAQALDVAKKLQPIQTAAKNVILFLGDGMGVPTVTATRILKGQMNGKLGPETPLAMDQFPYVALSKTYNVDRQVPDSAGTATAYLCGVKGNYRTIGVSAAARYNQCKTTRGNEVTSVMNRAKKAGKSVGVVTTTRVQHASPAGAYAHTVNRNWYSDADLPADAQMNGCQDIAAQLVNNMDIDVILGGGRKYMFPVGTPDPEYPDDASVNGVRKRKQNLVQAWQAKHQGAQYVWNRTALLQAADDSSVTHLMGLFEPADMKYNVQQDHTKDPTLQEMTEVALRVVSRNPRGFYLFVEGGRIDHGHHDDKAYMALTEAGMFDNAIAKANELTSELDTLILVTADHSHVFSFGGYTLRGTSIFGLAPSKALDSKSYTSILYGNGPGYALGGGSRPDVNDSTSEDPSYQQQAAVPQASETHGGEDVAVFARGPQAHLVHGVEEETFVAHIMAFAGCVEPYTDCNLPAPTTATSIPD
The series can be described thus: BiALP: conversion by bovine intestinal alkaline phosphatase. The series is classed as in vitro ADME. The settings on record: remaining substrate after 60 min at 37° C., 2 μM substrate, 100 ng/mL iALP, Tris buffer pH 7.8. As to the method:
Fosamprenavir and its parent compound (amprenavir) were purchased from Millipore Sigma (St. Louis, MO). Test compounds, Intermediate A, fosamprenavir, and amprenavir were each separately dissolved in dimethyl sulfoxide (DMSO) at a concentration of 10 mM to form stock solutions.
All other chemicals were purchased from Millipore Sigma (St. Louis, MO) and Thermo Fisher Scientific (Waltham, MA). The chemicals included purified bovine intestinal alkaline phosphatase as a lyophilized powder (specific activity: 101 diethanolamine units/mg solid). Internal Standard/Quench (IS/Q) was 100 nM labetalol in 99:1 (v/v) acetonitrile/formic acid.
Incubations were performed with Tris buffer alone (0.1 M Tris-HCl pH 7.8 containing 1 mM MgCl2 and 1 mM ZnCl2) or the same Tris buffer further containing 100 ng/mL iALP (0.01 units/mL). Triplicate 100 μL aliquots of Tris buffer±iALP were warmed to 37° C. and the reactions were initiated by the addition of the test compound or fosamprenavir to obtain final substrate concentrations of 2 μM. Incubations were then continued at 37° C. […] Aliquots (15 μL) of the diluted supernatants were analyzed by mass spectrometry as described below.
Quantification of the test compounds and fosamprenavir was performed by analyte/internal standard peak area ratios (PARs) with comparison to 2 μM Intermediate A and amprenavir, respectively. […]

The nature of another series: pH 7 Stability Assay. In kind it is physicochemical. Conditions: ACN/pH 7.4 buffer with 1% DMSO stock; 1/49.5/49.5% v/v DMSO stock/ACN/pH 7.4 buffer, UPLC 0-24 h; read-out: pH7 T½.
A further series is described as follows: Solubility in FaSSIF. The series is classed as physicochemical. The settings on record: 23 °C, thermodynamic from solid; FaSSIF pH 6.5, 5 mg/mL dose concentration, 2-hour incubation, ambient temperature. The protocol:
Buffer Preparation: Fasted State Simulated Intestinal Fluid (FaSSIF): Simulated Intestinal Fluid (SIF) powder containing a complex of Taurocholate and Lecithin (4:1 molar ratio) was obtained from Biorelevant. […] The buffer was prepared with HPLC H2O.
Test Compounds: Each test compound was placed in a vial containing approximately 7 mg of material. Aliquots were weighed out for each assay media at each time point to be analyzed. The buffer was added to each vial such that the final dose concentration of 5 mg/mL was achieved. Samples were then vortexed for 5-10 seconds.
The plate was sealed with a pierceable heat seal and analyzed by HPLC-UV.

Description for pH 7 Stability Assay: pH 7 Stability Assay: A sample stock at approximately 10 mg/mL of each test compound was prepared with dimethyl sulfoxide (DMSO) in vials. […] Sample vials were prepared by adding 495 μL ACN into a UPLC vial followed by 495 μL pH 7.4 buffer. Then 10 μL test compound stock solution from the first step was added to that UPLC vial. 1000 uL 50/50% v/v ACN/Water was used as diluent blank.
Metabolic stabilities were determined by measuring the rates of disappearance of test compound and positive control substrate. • Data (% of substrate remaining) were plotted on a semi-log scale and fitted using an exponential decline model:
[formula] • Assuming a first-order reaction, the slope (k) is extrapolated from the aforementioned plotted data.

`COC(=O)N[C@H](C(=O)N[C@@H](Cc1ccc(C#Cc2cnc(N3CC4CCC(C3)N4C3COC3)nc2)cc1)[C@H](CN(Cc1c(F)cc(-c2ccn(C(F)F)n2)cc1F)NC(=O)[C@@H](NC(=O)OC)C(C)(C)C(F)(F)F)OCOP(=O)(O)O)C(C)(C)C(F)(F)F` [Compound 1, methyl ((5S,8S,9S,14S)-11-(4-(1-(difluoromethyl)-1H-pyrazol-3-yl)-2,6-difluorobenzyl)-16,16,16-trifluoro-15,15-dimethyl-8-(4-((2-(8-(oxetan-3-yl)-3,8-diazabicyclo[3.2.1]octan-3-yl)pyrimidin-5-yl)ethynyl)benzyl)-3,6,13-trioxo-9-((phosphonooxy)methoxy)-5-(1,1,1-trifluoro-2-methylpropan-2-yl)-2-oxa-4,7,11,12-tetraazahexadecan-14-yl)carbamate] returned an EC50 in the series on HIV-1 IIIB strain of 22.3 nM. The half-life at 2 μM in series [1] is 81.6 min; in series [2], 47.2 min. The “[Compound]” value in series [3] was 1691 nM. For the same compound, the half-life at 0.1 mg/mL in the series “pH 7 Stability Assay” was above 20 days. In addition, the solubility at 2 h in the series “Solubility in FaSSIF” was 580 µg/mL (≈ 458 µM).

On to `CC(C)CN(C[C@@H](OP(=O)(O)O)[C@H](Cc1ccccc1)NC(=O)O[C@H]1CCOC1)S(=O)(=O)c1ccc(N)cc1` [Fosamprenavir, reference compound], for which the “[Compound]” value in series [3] was found to be 1605 nM.

The record behind these values is patent US20250326779A1, “ANTI-HIV COMPOUNDS” (priority 2024, published 2025).
